Drawing on US20240327381A1, “Compounds and Compositions for Selective Degradation of Engineered Proteins” (Celgene Corporation, priority 2023, published 2024), this text covers DC50 and Dmax for 10 molecules.

A value given as a limit tells only on which side of the number the result lay.

Assay [1] deals with T1, IKZF1 ZNF2_ZNF3 Q1F degron-tagged CD19 CAR (Homo sapiens, UniProt Q13422, Q146F).
T1 construct: ZNF2_ZNF3 Q1F degron (GERPFFCNQCGASFTQKGNLLRHIKLHSGEKPFKCHLCNYACRRRDALTGHLRTHS); fused on or other part: anti-CD19 scFv, CD28 transmembrane domain, 4-1BB costimulatory domain, CD3 zeta signaling domain (the CAR that carries the degron), and Nluc
The experiment in a line: Degradation of Q1F degron-tagged CD19 CAR in Jurkat cells (flow cytometry of CAR levels). Format: cell-based. To be noted: for DC50: Jurkat cells expressing CD19 CAR tagged with IKZF1 ZNF2_ZNF3 Q1F, 18 hours at 37° C., CAR levels normalized to untreated cells, read-out: Q1F Jurkat IC50; for Dmax: Ymax is the % protein degraded, Jurkat cells expressing Q1F degron-tagged CD19 CAR, 18 hours, read-out: Q1F Jurkat-YMax. Put shortly: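 Jurkat cells were lentivirally transduced with an anti-CD19 scFv/CD28 TM/4-1BB/CD3ζ CAR tagged with an IKZF1 ZNF2_ZNF3 Q1F degron–Nluc, then treated with compound titrations for 18 h at 37 °C. CAR surface levels were stained (20 min, 4 °C), read by flow cytometry and normalised to untreated cells. EC50 came from a four-parameter logistic fit; Ymin is the minimum % CAR remaining.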

Assay [2] has as its target T2, Helios (Homo sapiens, UniProt Q9UKS7).
T2 construct: endogenous in cells; host or cells: Jurkat cells, CRISPR/Cas9 knock-in of HiBit at the IKZF2 locus
As to the kind of experiment: Helios degradation in Jurkat/Helios/HiBit cells (Nano-Glo luminescence). Format: cell-based. The note with it: 18 hr, read-out: Helios Jurkat Hibit IC50. Put shortly:
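Jurkat cells carrying CRISPR-knocked-in C-terminal HiBit-tagged endogenous IKZF2 were treated with compound in DMEM/10% FCS (10,000 cells/well) for 18 h at 37 °C. HiBit signal was read by Nano-Glo luminescence after 30 min at RT. EC50 for degradation came from a four-parameter logistic fit, with Ymax as % protein degraded.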

T2 sequence (Q9UKS7 whole entry): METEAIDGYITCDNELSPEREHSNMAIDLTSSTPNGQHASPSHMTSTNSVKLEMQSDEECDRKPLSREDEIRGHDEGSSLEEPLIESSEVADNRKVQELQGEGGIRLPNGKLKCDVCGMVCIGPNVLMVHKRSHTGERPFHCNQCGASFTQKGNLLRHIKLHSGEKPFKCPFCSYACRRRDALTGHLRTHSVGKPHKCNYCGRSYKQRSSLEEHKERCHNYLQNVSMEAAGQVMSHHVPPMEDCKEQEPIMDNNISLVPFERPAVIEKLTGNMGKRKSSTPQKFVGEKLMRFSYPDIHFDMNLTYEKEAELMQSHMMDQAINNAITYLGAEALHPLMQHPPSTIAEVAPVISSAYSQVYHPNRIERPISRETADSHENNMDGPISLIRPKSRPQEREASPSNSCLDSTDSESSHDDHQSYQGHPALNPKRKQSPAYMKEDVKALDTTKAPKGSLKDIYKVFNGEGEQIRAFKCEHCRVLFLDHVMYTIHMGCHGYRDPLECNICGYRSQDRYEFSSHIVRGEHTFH
T2 sequence (Q96SW2 whole entry, further chain): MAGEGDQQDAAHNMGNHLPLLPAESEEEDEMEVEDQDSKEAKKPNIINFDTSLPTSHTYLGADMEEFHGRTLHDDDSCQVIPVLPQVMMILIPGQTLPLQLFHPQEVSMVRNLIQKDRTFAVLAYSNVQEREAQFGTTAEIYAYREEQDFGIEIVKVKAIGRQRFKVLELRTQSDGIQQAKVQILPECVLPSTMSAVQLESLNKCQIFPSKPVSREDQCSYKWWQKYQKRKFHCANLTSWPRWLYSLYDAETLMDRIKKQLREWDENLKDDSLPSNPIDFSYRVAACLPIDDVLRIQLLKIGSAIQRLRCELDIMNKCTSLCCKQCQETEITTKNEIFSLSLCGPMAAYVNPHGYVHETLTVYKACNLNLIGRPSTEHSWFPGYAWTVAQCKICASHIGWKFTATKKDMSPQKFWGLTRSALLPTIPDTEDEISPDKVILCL
T2 sequence (Q16531 whole entry partner): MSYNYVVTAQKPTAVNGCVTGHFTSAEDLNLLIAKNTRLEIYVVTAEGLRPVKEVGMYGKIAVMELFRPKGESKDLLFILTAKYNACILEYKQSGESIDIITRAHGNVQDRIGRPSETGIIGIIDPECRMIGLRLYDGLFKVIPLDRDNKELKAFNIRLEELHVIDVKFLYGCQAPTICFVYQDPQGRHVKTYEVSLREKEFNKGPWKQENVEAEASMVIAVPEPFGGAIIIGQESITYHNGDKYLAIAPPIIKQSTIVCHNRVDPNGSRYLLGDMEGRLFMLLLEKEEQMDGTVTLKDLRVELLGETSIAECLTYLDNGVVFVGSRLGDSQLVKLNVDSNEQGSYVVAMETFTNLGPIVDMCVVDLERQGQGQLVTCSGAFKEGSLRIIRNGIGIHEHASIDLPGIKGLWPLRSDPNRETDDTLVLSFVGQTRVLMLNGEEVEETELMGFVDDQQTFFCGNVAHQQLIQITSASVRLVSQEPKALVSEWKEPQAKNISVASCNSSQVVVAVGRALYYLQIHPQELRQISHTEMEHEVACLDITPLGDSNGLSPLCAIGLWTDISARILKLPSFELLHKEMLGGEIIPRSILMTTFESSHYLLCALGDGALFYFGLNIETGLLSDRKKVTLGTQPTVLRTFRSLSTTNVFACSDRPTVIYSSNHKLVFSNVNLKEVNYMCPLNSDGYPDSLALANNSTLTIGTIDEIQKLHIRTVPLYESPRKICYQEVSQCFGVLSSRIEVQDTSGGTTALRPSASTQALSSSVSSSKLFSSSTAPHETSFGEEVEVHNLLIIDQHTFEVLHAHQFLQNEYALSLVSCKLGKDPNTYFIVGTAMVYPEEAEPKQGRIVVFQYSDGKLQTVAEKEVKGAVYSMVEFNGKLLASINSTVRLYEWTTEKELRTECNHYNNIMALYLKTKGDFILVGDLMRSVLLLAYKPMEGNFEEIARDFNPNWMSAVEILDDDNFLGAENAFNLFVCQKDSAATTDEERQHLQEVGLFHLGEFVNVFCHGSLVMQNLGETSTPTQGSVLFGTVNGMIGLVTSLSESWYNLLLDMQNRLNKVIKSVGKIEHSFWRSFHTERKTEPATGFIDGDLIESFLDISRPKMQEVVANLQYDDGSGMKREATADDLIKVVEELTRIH
T1 sequence (Q13422 whole entry Q146F, the tested form may be a part): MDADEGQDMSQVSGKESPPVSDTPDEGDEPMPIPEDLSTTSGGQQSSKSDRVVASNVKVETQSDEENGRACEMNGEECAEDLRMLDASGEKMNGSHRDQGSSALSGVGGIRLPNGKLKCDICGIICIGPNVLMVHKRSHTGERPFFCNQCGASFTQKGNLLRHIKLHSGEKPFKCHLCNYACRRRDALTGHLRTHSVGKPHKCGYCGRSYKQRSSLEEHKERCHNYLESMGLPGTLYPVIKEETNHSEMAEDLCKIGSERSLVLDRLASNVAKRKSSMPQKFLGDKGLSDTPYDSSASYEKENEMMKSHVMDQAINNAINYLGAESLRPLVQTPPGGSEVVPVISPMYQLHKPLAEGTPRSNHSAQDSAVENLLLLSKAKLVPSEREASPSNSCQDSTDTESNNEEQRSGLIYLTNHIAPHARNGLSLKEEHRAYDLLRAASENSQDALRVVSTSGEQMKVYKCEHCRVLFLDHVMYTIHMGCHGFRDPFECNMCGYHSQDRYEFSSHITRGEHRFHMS

For the molecule `O=C1CCC(N2Cc3c(cc(F)c(C4CCN(Cc5nc(C(F)(F)F)cs5)CC4)c3F)C2=O)C(=O)N1` (stereo not drawn) [Compound 105, 3-(4,6-difluoro-1-oxo-5-(1-((4-(trifluoromethyl)thiazol-2-yl)methyl)piperidin-4-yl)isoindolin-2-yl)piperidine-2,6-dione], in assay [1], the DC50 stood at 83.5 nM and the Dmax was 75.3%. The DC50 in assay [2] is no less than 10 µM.

For the molecule `O=C1CCC(N2Cc3c(cc(F)c(C4CCN(Cc5ccncc5)CC4)c3F)C2=O)C(=O)N1` (stereo not drawn) [Compound 117, 3-(4,6-difluoro-1-oxo-5-(1-(pyridin-4-ylmethyl)piperidin-4-yl)isoindolin-2-yl)piperidine-2,6-dione], in assay [1], the DC50 was 6.26 nM and the Dmax is 86.1%. Moreover, in assay [2], the DC50 was no less than 10 µM.

With `O=C1CCC(N2Cc3cc(C4CCN(Cc5ccc6c(c5)CCC6)CC4)c(F)cc3C2=O)C(=O)N1` (stereo not drawn) [Compound 88, 3-(5-(1-((2,3-dihydro-1H-inden-5-yl)methyl)piperidin-4-yl)-6-fluoro-1-oxoisoindolin-2-yl)piperidine-2,6-dione], in assay [1], the DC50 came out at 3.1 nM and the Dmax was 91.6%. Besides, the DC50 in assay [2] is no less than 10 µM.

In the case of `O=C1CCC(N2Cc3cc(C4CCN(Cc5ccc6cn[nH]c6c5)CC4)c(F)cc3C2=O)C(=O)N1` (stereo not drawn) [Compound 87, 3-(5-(1-((1H-indazol-6-yl)methyl)piperidin-4-yl)-6-fluoro-1-oxoisoindolin-2-yl)piperidine-2,6-dione], the DC50 was 4.06 nM in assay [1] and no less than 10 µM in assay [2]. The Dmax in assay [1] is 94.2%.

With `O=C1CCC(N2Cc3c(cc(F)c(C4CCN(Cc5ccc6ccccc6n5)CC4)c3F)C2=O)C(=O)N1` (stereo not drawn) [Compound 53, 3-(4,6-difluoro-1-oxo-5-(1-(quinolin-2-ylmethyl)piperidin-4-yl)isoindolin-2-yl)piperidine-2,6-dione], in assay [1], the DC50 turned out to be 0.727 nM and the Dmax amounted to 93.3%. For the same molecule, in assay [2], the DC50 was no less than 10 µM.

Regarding `O=C1CCC(N2Cc3c(cc(F)c(C4CCN(Cc5nc(C6CC6)cs5)CC4)c3F)C2=O)C(=O)N1` (stereo not drawn) [Compound 104, 3-(5-(1-((4-cyclopropylthiazol-2-yl)methyl)piperidin-4-yl)-4,6-difluoro-1-oxoisoindolin-2-yl)piperidine-2,6-dione], in assay [1], the DC50 amounted to 30.9 nM and the Dmax was found to be 83.6%. In addition, the DC50 in assay [2] was no less than 10 µM.

For the molecule `O=C1CCC(N2Cc3c(cc(F)c(C4CCN(Cc5nnc(-c6ccccc6)o5)CC4)c3F)C2=O)C(=O)N1` (stereo not drawn) [Compound 120, 3-(4,6-difluoro-1-oxo-5-(1-((5-phenyl-1,3,4-oxadiazol-2-yl)methyl)piperidin-4-yl)isoindolin-2-yl)piperidine-2,6-dione], in assay [1], the DC50 is 165 nM and the Dmax was 65.8%. The DC50 in assay [2] is no less than 10 µM.

For the molecule `Cc1cc(Br)cnc1CN1CCCC(c2c(F)cc3c(c2F)CN(C2CCC(=O)NC2=O)C3=O)C1` (stereo not drawn) [Compound 68, 3-(5-(1-((5-bromo-3-methylpyridin-2-yl)methyl)piperidin-3-yl)-4,6-difluoro-1-oxoisoindolin-2-yl)piperidine-2,6-dione], in assay [1], the DC50 was 50.5 nM and the Dmax is 63.5%. In addition, the DC50 in assay [2] is no less than 10 µM.

On to `O=C1CCC(N2Cc3c(cc(F)c(C4CCN(C5CCCCC5)CC4)c3F)C2=O)C(=O)N1` (stereo not drawn) [Compound 97, 3-(5-(1-cyclohexylpiperidin-4-yl)-4,6-difluoro-1-oxoisoindolin-2-yl)piperidine-2,6-dione], for which, in assay [1], the DC50 stood at 3.88 nM and the Dmax was 88.3%. Besides, in assay [2], the DC50 was no less than 10 µM.

For `Cn1cncc1CN1CCC(c2c(F)cc3c(c2F)CN(C2CCC(=O)NC2=O)C3=O)CC1` (stereo not drawn) [Compound 1, 3-(4,6-difluoro-5-(1-((1-methyl-1H-imidazol-5-yl)methyl)piperidin-4-yl)-1-oxoisoindolin-2-yl)piperidine-2,6-dione], in assay [1], the DC50 was 10.4 nM and the Dmax came out at 85.3%. Moreover, the DC50 in assay [2] was no less than 10 µM.
